This note sets out measurements from patent US20250340551A1, “SMALL MOLECULE MODULATORS OF STAT6” (Gilead Sciences, Inc., priority 2024, published 2025).

A value given as a limit tells only on which side of the number the result lay.

Assay [1] has as its system Eotaxin-3 (CCL26) release in human whole blood stimulated with IL-4. Put plainly: Human whole blood eotaxin-3 assay (IL-4 stimulated, Eotaxin-3 release). The assay is classed as cell-based. Particulars: for Emax: 48 h. The method, boiled down:
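Lithium-heparin blood preincubated 2 h at 37° C with 4-fold compound dilutions (0.5% DMSO, triplicates), then stimulated with 400 pM recombinant human IL-4 for 48 h. Eotaxin-3 in plasma supernatant measured by MSD immunoassay.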

For another assay, the target named is human STAT6 (Homo sapiens (Human), UniProt P42226). Briefly: Surface plasmon resonance assay (Biacore 8K, binding to immobilized STAT6). The settings on record: human STAT6 aa122-658, N-terminal His-tag, CM5 chip, 25° C.; geometric mean; read-out: STAT6 SPR Kd. The method, boiled down:
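Run at 25° C with His-tagged STAT6 aa122-658 (insect-cell expressed) amine-coupled to a CM5 chip, reference-subtracted, in PBS-P+ with 2% DMSO. Multi-cycle kinetics: 60 sec. contact, up to 300 sec. dissociation. Affinity fitted from late report-point binding isotherms, with Rmax both free and fixed to theoretical 1:1.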

Sequence of human STAT6 (P42226 122-658): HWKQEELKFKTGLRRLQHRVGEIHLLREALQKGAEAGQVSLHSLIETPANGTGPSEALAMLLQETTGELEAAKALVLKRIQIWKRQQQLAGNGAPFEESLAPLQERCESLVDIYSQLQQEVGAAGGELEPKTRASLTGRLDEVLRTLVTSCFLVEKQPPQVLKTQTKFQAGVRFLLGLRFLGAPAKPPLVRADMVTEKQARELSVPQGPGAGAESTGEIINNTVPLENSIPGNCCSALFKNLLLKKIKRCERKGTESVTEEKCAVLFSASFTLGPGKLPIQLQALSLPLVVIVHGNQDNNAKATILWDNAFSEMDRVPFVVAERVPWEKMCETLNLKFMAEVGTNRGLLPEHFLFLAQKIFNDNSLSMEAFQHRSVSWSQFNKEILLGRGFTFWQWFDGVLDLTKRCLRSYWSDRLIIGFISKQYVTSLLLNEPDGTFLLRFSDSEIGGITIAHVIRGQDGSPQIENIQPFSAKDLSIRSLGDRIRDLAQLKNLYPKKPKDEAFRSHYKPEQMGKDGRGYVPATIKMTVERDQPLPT

Consider `CNc1ccc(-c2ccnc3c2cc(CN2CC=C(c4c(C)cc(C(=O)N(C)C)cc4C)CC2)n3C)cn1` [Example 1s10, N,N,3,5-Tetramethyl-4-[1-[[1-methyl-4-[6-(methylamino)-3-pyridyl]pyrrolo[2,3-b]pyridin-2-yl]methyl]-3,6-dihydro-2H-pyridin-4-yl]benzamide], for which, in assay [1] (Homo sapiens, Hec50, 48 h), a half-maximal effect (EC50) was put at 205 nM. In addition, the Kd on human STAT6 is 40.4 nM.

The molecule `CN(C)C(=O)c1ccc(C2CCN(Cc3cc4c(-c5ccc(N)nc5)ccnc4n3C)CC2)cc1` [Example 1k3, 4-[1-[[4-(6-Amino-3-pyridyl)-1-methyl-pyrrolo[2,3-b]pyridin-2-yl]methyl]-4-piperidyl]-N,N-dimethyl-benzamide] showed an EC50 in assay [1] (Homo sapiens, Hec50, 48 h) of 6000 nM. For the same molecule, the Kd at human STAT6 was 11.4 nM.

Molecule `C[C@H]1C[C@@H](c2ccc(C(=O)N(C)C)cc2)CCN1Cc1cc2c(-c3ccc(N)cn3)ccnc2n1C` (single isomer, unassigned) [Example 1q6] came in with a concentration giving a half-maximal response (EC50) in assay [1] (Homo sapiens, Hec50, 48 h) of 3080 nM. On human STAT6, the Kd was 47.4 nM.

`CN(C)C(=O)c1ccc(C2CCN(Cc3cc4c(-c5ccc(N)cn5)ccnc4n3C)CC2)cc1` [Example 1k66, 4-(1-((4-(5-Aminopyridin-2-yl)-1-methyl-1H-pyrrolo[2,3-b]pyridin-2-yl)methyl)piperidin-4-yl)-N,N-dimethylbenzamide] had an EC50 in assay [1] (Homo sapiens, Hec50, 48 h) of 6620 nM. Further, the Kd on human STAT6 stood at 18.8 nM.

For `[2H]C([2H])([2H])N(C(=O)c1ccc(C2=CCN([C@H](C)c3cc4c(-c5ccc(N)nc5C#N)ccnc4n3C)CC2)c(C)c1)C([2H])([2H])[2H]` [Example 1af26, (R)-4-(1-(1-(4-(6-amino-2-cyanopyridin-3-yl)-1-methyl-1H-pyrrolo[2,3-b]pyridin-2-yl)ethyl)-1,2,3,6-tetrahydropyridin-4-yl)-3-methyl-N,N-bis(methyl-d3)benzamide], the EC50 in assay [1] (Homo sapiens, Hec50, 48 h) was 65.4 nM. Also, at human STAT6, the Kd was 20 nM.

In assay [1] (Homo sapiens, Hec50, 48 h), `CNc1ccc(-c2ccnc3c2cc([C@H](C)N2CCC(c4ccc(C(=O)N(C)C)cc4)CC2)n3C)nc1` [Example 1o24, (S)—N,N-dimethyl-4-(1-(1-(1-methyl-4-(5-(methylamino)pyridin-2-yl)-1H-pyrrolo[2,3-b]pyridin-2-yl)ethyl)piperidin-4-yl)benzamide] returned an EC50 of 444 nM. Further, on human STAT6, the Kd was determined as 31.2 nM.

Turning to `CNc1ccc(-c2ccnc3c2cc(CN2CCN(c4ccc(C(=O)N(C)C)cc4C)CC2)n3C)nn1` [Example 1p3, N,N,3-Trimethyl-4-[4-[[1-methyl-4-[6-(methylamino)pyridazin-3-yl]pyrrolo[2,3-b]pyridin-2-yl]methyl]piperazin-1-yl]benzamide], the midpoint of the response in assay [1] (Homo sapiens, Hec50, 48 h), the EC50, lay at 232 nM. For the same molecule, the Kd at human STAT6 worked out at 19.2 nM.

In turn, `[2H]C([2H])([2H])N(C(=O)c1ccc(C2=CCN([C@H](C)c3cc4c(-c5ccc(N)cn5)ccnc4n3C)CC2)cc1)C([2H])([2H])[2H]` [Example 1af46, (R)-4-(1-(1-(4-(5-amino-pyridin-2-yl)-1-methyl-1H-pyrrolo[2,3-b]pyridin-2-yl)ethyl)-1,2,3,6-tetrahydro-pyridin-4-yl)-N,N-bis(methyl-d3)benzamide] came in with an EC50 in assay [1] (Homo sapiens, Hec50, 48 h) of 760 nM. In addition, the Kd at human STAT6 was 48.3 nM.

For the molecule `C[C@@H]1C[C@H](c2ccc(C(=O)N(C)C)cc2)CCN1Cc1cc2c(-c3ccc(N)nc3C#N)ccnc2n1C` (single isomer, unassigned) [Example 1q4], in assay [1] (Homo sapiens, Hec50, 48 h), the response was half-maximal at 138 nM (EC50). Besides, on human STAT6, the equilibrium dissociation constant (Kd) is 18.4 nM.

With `CNc1ccc(-c2ccnc3c2cc(CN2CCC(c4ccc(C(=O)N(C)C)cc4)CC2)n3S(C)(=O)=O)cn1` [Example 1x1, N,N-Dimethyl-4-[1-[[4-[6-(methylamino)-3-pyridyl]-1-methylsulfonyl-pyrrolo[2,3-b]pyridin-2-yl]methyl]-4-piperidyl]benzamide], the concentration giving a half-maximal response (EC50) in assay [1] (Homo sapiens, Hec50, 48 h) is 1110 nM. The Kd on human STAT6 was determined as 29.5 nM.

With `CNc1ccc(-c2ccnc3c2cc(CN2CC[C@@H](c4ccc(C(=O)N(C)C)cc4)C[C@H]2C)n3C)nc1` [Example 1o26, N,N-dimethyl-4-((2R,4R)-2-methyl-1-((1-methyl-4-(5-(methylamino)-pyridin-2-yl)-1H-pyrrolo[2,3-b]pyridin-2-yl)methyl)piperidin-4-yl)benzamide], a half-maximal response in assay [1] (Homo sapiens, Hec50, 48 h) (EC50) required 458 nM. The Kd on human STAT6 was 32.4 nM.

The molecule `CN(C)C(=O)c1ccc(C2CCN(Cc3cc4c(-c5cnc(N)nc5)ccnc4n3C)CC2)cc1` [Example 1k13, 4-[1-[[4-(2-Aminopyrimidin-5-yl)-1-methyl-pyrrolo[2,3-b]pyridin-2-yl]methyl]-4-piperidyl]-N,N-dimethyl-benzamide] gave an EC50 in assay [1] (Homo sapiens, Hec50, 48 h) of 14200 nM. Also, the Kd on human STAT6 is 87.7 nM.

Consider `CNc1ccc(-c2ccnc3c2cc([C@@H](C)N2CCC(c4ccc(C(=O)N(C)C)cc4)CC2)n3C)cn1` (single isomer, unassigned) [Example 1af8], for which the EC50 in assay [1] (Homo sapiens, Hec50, 48 h) was 369 nM. Further, the Kd at human STAT6 stood at 14.6 nM.

Take “4-[1-[[4-(6-Amino-2-methyl-3-pyridyl)-1-methyl-pyrrolo[2,3-b]pyridin-2-yl]methyl]-4-piperidyl]-N,N-dimethyl-benzamide [Example 1k12]”: in assay [1] (human whole blood, 400 pM recombinant human IL-4, 48 h, EC50 provided for compounds with >80% Emax, geometric mean), the EC50 was 15700 nM. The Kd at human STAT6 came to 20.1 nM.

In assay [1] (Homo sapiens, Hec50, 48 h), `Cc1nc(-c2ccnc3c2cc(CN2CCC(c4ccc(C(=O)N(C)C)cc4)CC2)n3C)ccc1N` [Example 1k73, 4-[1-[[4-(5-Amino-6-methyl-2-pyridyl)-1-methyl-pyrrolo[2,3-b]pyridin-2-yl]methyl]-4-piperidyl]-N,N-dimethyl-benzamide] returned an EC50 of 7610 nM. The Kd on human STAT6 amounted to 50.3 nM.

Molecule `[2H]C([2H])([2H])N(C(=O)c1ccc(C2CCN([C@@H](C)c3cc4c(-c5ccc(N)nc5C#N)ccnc4n3C)CC2)c(C)c1)C([2H])([2H])[2H]` [Example 1af37, (S)-4-(1-(1-(4-(6-Amino-2-cyanopyridin-3-yl)-1-methyl-1H-pyrrolo[2,3-b]pyridin-2-yl)ethyl)piperidin-4-yl)-3-methyl-N,N-bis(methyl-d3)benzamide] showed an EC50 in assay [1] (Homo sapiens, Hec50, 48 h) of 699 nM. Further, the dissociation constant (Kd) at human STAT6 was 57.7 nM.

Consider `[2H]C([2H])([2H])N(C(=O)c1cnc(C2=CCN(Cc3cc4c(-c5ccc(N)nc5)ccnc4n3C)CC2)nc1)C([2H])([2H])[2H]` [Example 1af73, 2-(1-((4-(6-Aminopyridin-3-yl)-1-methyl-1H-pyrrolo[2,3-b]pyridin-2-yl)methyl)-1,2,3,6-tetrahydropyridin-4-yl)-N,N-bis(methyl-d3)pyrimidine-5-carboxamide], for which the EC50 in assay [1] (Homo sapiens, Hec50, 48 h) is 46.3 nM.

In turn, `[2H]C([2H])([2H])N(C(=O)c1ccc(C2CCN([C@@H](C)c3cc4c(-c5ccc(N)c(C)n5)ccnc4n3C)CC2)cc1)C([2H])([2H])[2H]` [Example 1af66, (S)-4-(1-(1-(4-(5-amino-6-methylpyridin-2-yl)-1-methyl-1H-pyrrolo[2,3-b]pyridin-2-yl)ethyl)piperidin-4-yl)-N,N-bis(methyl-d3)benzamide] yielded an EC50 in assay [1] (Homo sapiens, Hec50, 48 h) of 611 nM.

In the case of `CNc1ccc(-c2ccnc3c2cc(CN2CC[C@@H](c4ccc(C(=O)N(C)C)cc4)C[C@@H]2C)n3C)nc1` (single isomer, unassigned) [Example 1o28], the Emax in assay [1] (Homo sapiens) was less than 20%.

`CNc1ccc(-c2ccnc3c2cc([C@H](C)N2CC=C(c4c(C)cc(C(=O)N(C)C)cc4F)CC2)n3C)cn1` [Example 1z37, (S)-3-fluoro-N,N,5-trimethyl-4-(1-(1-(1-methyl-4-(6-(methylamino)pyridin-3-yl)-1H-pyrrolo[2,3-b]pyridin-2-yl)ethyl)-1,2,3,6-tetrahydropyridin-4-yl)benzamide]: a half-maximal response in assay [1] (Homo sapiens, Hec50, 48 h) (EC50) required 439 nM.

Regarding `[2H]C([2H])([2H])N(C(=O)c1ccc(C2=CCN(Cc3cc4c(-c5ccc(NC)nn5)ccnc4n3C)CC2)c(C)c1)C([2H])([2H])[2H]` [Example 1p7, 3-Methyl-4-[1-[[1-methyl-4-[6-(methylamino)pyridazin-3-yl]pyrrolo[2,3-b]pyridin-2-yl]methyl]-3,6-dihydro-2H-pyridin-4-yl]-N,N-bis(trideuteriomethyl)benzamide], the EC50 in assay [1] (Homo sapiens, Hec50, 48 h) is 504 nM.

With `Cc1cc(C2=CCN(Cc3cc4c(-c5ccc(N)nc5)ccnc4n3C)CC2)ccc1C(=O)N(C)C` [Example 1z5, 4-(1-((4-(6-aminopyridin-3-yl)-1-methyl-1H-pyrrolo[2,3-b]pyridin-2-yl)methyl)-1,2,3,6-tetrahydropyridin-4-yl)-N,N,2-trimethylbenzamide], in assay [1] (Homo sapiens), the maximum response (Emax) fell in the range of 30 to 40%.

Turning to `CNc1ccc(-c2ccnc3c2cc(CN2CC=C(c4ncc(C(=O)N(C)C)cc4C)CC2)n3C)nn1` [Example 1p11, N,N,5-Trimethyl-6-[1-[[1-methyl-4-[6-(methylamino)pyridazin-3-yl]pyrrolo[2,3-b]pyridin-2-yl]methyl]-3,6-dihydro-2H-pyridin-4-yl]pyridine-3-carboxamide], the EC50 in assay [1] (Homo sapiens, Hec50, 48 h) worked out at 4530 nM.

Consider `[2H]C([2H])([2H])N(C(=O)c1cnc(C2=CCN(Cc3cc4c(-c5cnc(N)cc5F)ccnc4n3C)CC2)nc1)C([2H])([2H])[2H]` [Example 1z11, 2-(1-((4-(6-amino-4-fluoropyridin-3-yl)-1-methyl-1H-pyrrolo[2,3-b]pyridin-2-yl)methyl)-1,2,3,6-tetrahydropyridin-4-yl)-N,N-bis(methyl-d3)pyrimidine-5-carboxamide], for which the Emax in assay [1] (Homo sapiens) was in the range of 20 to 30%.

Molecule `CN(C)C(=O)c1ccc(C2=CCN(Cc3cc4c(-c5ccc(N)nc5)ccnc4n3C)CC2)c(C#N)c1` [Example 1z10, 4-(1-((4-(6-aminopyridin-3-yl)-1-methyl-1H-pyrrolo[2,3-b]pyridin-2-yl)methyl)-1,2,3,6-tetrahydropyridin-4-yl)-3-cyano-N,N-dimethylbenzamide] showed a concentration giving a half-maximal response (EC50) in assay [1] (Homo sapiens, Hec50, 48 h) of 473 nM.
